# In patent US6441029B1, “Method of suppressing tumor growth with combinations of isoprenoids and statins” (Wisconsin Alumni Research Foundation, priority 1997, dated 2002):
# Where “and” joins values, the source holds several entries; their conditions need not be identical. Identical values can stand only once. Like-named read-outs stand apart in the source and are kept apart here. Marks after values point to notes of the source that are not given here.
# Columns and labels:
# [1] = tested on: Murine B16(F10) melanoma cells; assay: IC50 determinations: net increase in 48 hour melanoma cell count; type: cell-based
# Protocol: (§1) Cultures, seeded with 1-1.5×10^5 cells, were incubated for 24 hours at 37° C. in a humidified atmosphere of 5% CO2. Isoprenoids, dissolved in absolute ethanol, were added at 24 hours (0 time); all cultures contained 5 mL ethanol/L ([…]). The cultures were incubated for an additional 48 hours. The media was removed and the monolayers were washed twice with Hanks' Balanced Salt Solution (Sigma) and then incubated with a trypsin-EDTA solution (Sigma) at 37° C. for 2 minutes. Trypsin was inactivated by suspending the cells in medium containing 10% fetal bovine serum (Sigma). The cells were pelleted at 250×g and resuspended in Hanks' Balanced Salt Solution. Viable cells, cells that excluded 0.4% trypan blue (GIPCOBRL), were counted with a hemocytometer; 24 hour cell counts were deducted from final cell counts to provide an estimate of the net increase in cell number.
# FIG. 1 is a representative evaluation of the dose-dependent impact of five different tocols on the proliferation of melanoma B16 cells. Cultures (3 mL) seeded with 1-1.5×10^5 cells were incubated for 24 hours prior to the introduction of the tocols. Viable cells were counted at 48 hours following the addition of the tocols. The cell count at 24 hours (0 time) is shown by the dashed line. The intersection of the solid horizontal line and the line plotted for each tocol indicates the concentration at which the tocol suppressed by 50% the increase in cell number during the incubation (IC50 value). IC50 values (mean, SD and n) for all isoprenoids tested are listed on Table 1. […] The growth-suppressive potency of the individual tocotrienols was inverse to the number of methyl groups on the 6-chromanol ring: d-α-tocotrienol (methyl groups at carbons 5, 7, 8 and 2)<<d-γ-tocotrienol (methyl groups at carbons 7, 8 and 2)<d-δ-tocotrienol (methyl groups at carbons 8 and 2)<<d-2-desmethyl tocotrienol (no methyl groups) (Table 1).
# B16 melanoma cells = assay: Paired isoprenoids, 48 hour cell count (FIG. 2A, 2B); type: cell-based, Murine
# Protocol: as §1
# We next determined that the effects of the isoprenoids on the growth of B16 melanoma cells in culture are additive, and in some cases, synergistic. FIG. 2A illustrates the additive effects of γ-tocotrienol and β-ionone on B16 melanoma cell populations. Values are means±SD, n=28; pooled SEM=36 (×10^4). Cell counts calculated to show the decreased population relative to the control are listed on the insert table.
# FIG. 2B illustrates the additive effects of carvacrol and β-ionone on B16 melanoma cell populations. Values are means±SD, n=28; pooled SEM=62 (×10^4). Cell counts calculated to show the decreased population relative to the control are listed in the inset table. ^a-hMeans not sharing a superscript (a>b>c>d>e>f>g>h) are different (P<0.001). Referring to FIG. 2, B16 melanoma cells were incubated with β-ionone and d-γ-tocotrienol in one test (FIG. 2A). d-γ-Tocotrienol (7.5 μmol/L) and β-ionone (50 μmol/L) reduced the 48 hour cell count by 19% and 10% respectively (FIG. 2A). The 34% reduction in cell number achieved with the paired isoprenoids exceeded the 29% reduction predicted by the sum of the individual effects (FIG. 2A, inset). At higher concentrations d-γ-tocotrienol (15 μmol/L) and β-ionone (100 μmol/L) reduced the 48 hour cell count by 34% and […] respectively; the additive effect, a 68% reduction in cell number, was also greater than the sum of the individual effects (59%) (FIG. 2A, inset).
# Carvacrol (50 μmol/L) and β-ionone (75 μmol/L) reduced the 48 hour cell count by 25% and 31% respectively; the additive effect, a 48% reduction in cell number, was less than the 56% reduction predicted by the sum of the individual effects. Carvacrol (100 μmol/L) and β-ionone (150 μmol/L) reduced the cell count by 35% and 65% respectively; the additive effect, an 84% reduction in cell number, again was less than the 100% reduction predicted by the sum the individual effects (FIG. 2B, inset). The reduction in cell number predicted by the sum of the individual effects of the isoprenoids was highly correlated with that achieved with the paired isoprenoids (r=0.91, n=8, P<0.01).
# [2] = ubiquinone given to patients receiving 30 mg/kg or higher doses of lovastatin; cited from earlier work
# implanted 216 melanomas = settings: massive intake, 733 μmol/d; Meadows, et al., 1991; cited from earlier work
# B16(F10) melanoma = settings: for retardation in tumor growth: 10 days prior to and 28 days following implantation, P<0.05
# Protocol: The first examined the impact of a diet-relevant intake of d-γ-tocotrienol on the growth of B16(F10) melanomas in host mice. […] We first prepared a basal diet mix, patterned after the AIN-76A formulation (American Institute of Nutrition, 1977) but free of corn oil and dl-α-tocopherol. These ingredients and Vitamin E-stripped corn oil were purchased from Teklad Test Diets, Madison, Wis. Stock solutions of dl-α-tocopherol (80 μmol/g) and d-γ-tocotrienol (80 μmol/g) were prepared with vitamin E-stripped corn oil. Stock solutions of the tocols, diluted with vitamin E-stripped corn oil, were mixed with the basal diet to provide finished diets containing 5% corn oil and specified tocol concentrations. Where noted, β-ionone was added to the oil. The diets, mixed weekly, were stored under refrigeration. Food cups were cleaned and refilled daily.
# Experiment 1: Weanling C57BL female mice (Harlan-Sprague Dawley, Madison, Wis.) were housed in groups of four on wood shavings in plastic cages and maintained at 25° C. with a 12 hour light-dark cycle. The four groups of mice (20/group) were fed experimental diets for 10 days prior to and for 28 days following the implantation of B16 melanoma cells. The split plot design consisted of four treatments comprised of two tocols, dl-α-tocopherol and d-γ-tocotrienol, each presented at two levels, 116 and 924 μmol/kg diet. This design permitted two comparisons of diets equal in tocol content and one comparison of diets about equal in d-α-tocopherol equivalents. […] We then corrected for the biological activity of the dl-α-tocopherol mixture (70% of the activity of d-α-tocopherol) in arriving at the 8:1 tocotrienol/tocopherol ratio used in formulating the experimental diets. Melanoma cells, cultured and harvested as previously, described (Shoff, et al., 1991), were washed twice with RPMI 1640 containing 10% Fetal Bovine Sera (GIBCOBRL). The pelleted cells were suspended in RPMI 1640 and counted (98% viable) after a 1:20 dilution in 0.4% trypan blue. The cells were further diluted in RPMI 1640 (1×10^8 cells/L) and 0.1 mL of the suspension (1×10^4 cells) was injected subcutaneously into the flank of each mouse. […] The mice were killed by CO2 overdose and the tumors were excised and weighed.
# Statistical Methods: StatView and SuperANOVA software (Abacus Concepts, Berkeley, Calif.) were used for the assessment of treatment-mediated effects. Treatment-mediated differences in body and tumor weights, days to tumor appearance and days to morbidity were identified with split plot analysis of variance and pairwise t-tests of least squares means. Treatment-mediated differences in days to morbidity were also assessed using parametric (paired t-test) and nonparametric (Wilcoxon signed rank) tests (Haycock, et al., 1992).
# The first dietary study evaluated the impact of d-γ-tocotrienol and dl-α-tocopherol on days to detection of a solid tumor and growth of implanted B16 melanomas.
# [3] = tested on: murine melanoma B16/F10 cells; assay: In vitro growth assays of lovastatin, β-ionone and γ-tocotrienol alone and combined (Table 5); type: cell-based
# [4] = tested on: Murine B16(F10) melanoma cells; settings: L. He, et al., J. Nutr. 1997; read-out: IC50, proliferation of murine melanoma B16/F10 cells; cited from earlier work
# [5] = tested on: implanted murine melanoma B16F10 tumors; settings: cited from earlier work
# [6] = tested on: established implanted B16 melanoma; assay: Experiment 2: isoprenoid-enriched diets, survival of mice bearing established melanomas; type: in vivo, C57BL female mice; settings: for Days survival, Mean / Days survival, Median: n = 12; for growth of established B16 melanomas: diet providing 7 μmol/d; for duration of host survival: experimental diets versus control, P<0.03
# Protocol: Where noted, β-ionone was added to the oil. The diets, mixed weekly, were stored under refrigeration. Food cups were cleaned and refilled daily.
# Experiment 2: Weanling female C57BL female mice (n=60, Harlan Sprague-Dawley) were acclimated to the housing conditions and AIN-76A diet (116 μmol dl-α-tocopherol/kg diet) as described above. Tumors were implanted and the mice continued to receive the AIN-76A diet. Beginning on day 8 post-implant the mice were palpated daily for the presence of a tumor. Tumors were first detected on day 14. Random numbers were generated for assigning each mouse in a sequential subset of five to a diet. Experimental treatments provided 2 and 4 mmol d-γ-tocotrienol/kg diet. We additionally tested the impact of β-ionone (2 mmol β-ionone/kg AIN-76A diet) and that of a blend of the two isoprenoids (2 mmol each/kg diet) on the survival of the mice.
# We then asked if either dietary d-γ-tocotrienol or β-ionone would prolong the survival of mice bearing implanted melanomas. Dietary treatments were initiated following the detection of solid tumors. We also asked whether these structurally diverse isoprenoids would have an additive effect on survival. The experimental groups were constructed by random assignment of each member of successive subsets of 5 mice to one of the experimental diets. […] Treatments increased median duration of survival by 42±4.5% and the mean duration of survival by 30% (P<0.005); differences between duration of survival means of the experimental groups were not significant (Table 3, FIG. 3). FIG. 3 is a survival curve for host mice receiving isoprenoid-enriched diets following the detection of a solid implanted B16 melanoma. Mean survival durations are presented on Table 4. β-ionone and γ-tocotrienol^1 treatments provided 2 mmol of the isoprenoid/kg diet; the blend provided 2 mmol of each isoprenoid/kg diet; and γ-tocotrienol^2 provided 4 mmol γ-tocotrienol/kg diet.
# [7] = read-out: IC50: concentration required to suppress the increase in the population of melanoma cells by 50% during a 48 hour incubation; 48 hour incubation; means ± SD
# [8] = 48 hour incubation; means ± SD; read-out: IC50: concentration required to suppress the increase in the population of melanoma cells by 50% during a 48 hour incubation
compound,measurement,setting,value
"Cc1ccc(C(C)C)cc1O [Carvacrol, 5-isopropyl-2-methylphenol, reference compound]",IC50,[1]; [7],120 ± 15 µM
same,reduction of 48 hour cell count,B16 melanoma cells; 50 μmol/L,25%
same,reduction of 48 hour cell count,B16 melanoma cells; 100 μmol/L,35%
"CC(C)=CCC/C(C)=C/CC/C(C)=C/CO [Farnesol, trans, trans 3,7,11-trimethyl-2,6,10 dodecatrien-1-ol]",IC50,[1]; [8],50 µM
"CC(C)=CCC/C(C)=C/CO [Geraniol, trans 3,7-dimethyl-2,6-octadien-1-ol]",IC50,[1]; [8],150 ± 19 µM
"C=C(C)C1CC=C(C=O)CC1 (stereo not drawn) [Perillaldehyde, [R]-4-isopropenyl-1-carboxaldehyde cyclohexene]",IC50,[1]; [7],120 ± 17 µM
"C=C(C)[C@@H]1CC=C(CO)CC1 [Perillyl alcohol, [R]4-isopropenyl-1-methanol-cyclohexene]",IC50,[1]; [8],250 µM
"Cc1ccc(C(C)C)c(O)c1 [Thymol, 5-methyl-2-isopropylphenol]",IC50,[1]; [8],120 ± 15 µM
COC1=C(OC)C(=O)C(C/C=C(\C)CC/C=C(\C)CC/C=C(\C)CC/C=C(\C)CC/C=C(\C)CC/C=C(\C)CC/C=C(\C)CC/C=C(\C)CC/C=C(\C)CCC=C(C)C)=C(C)C1=O [Ubiquinone],incidence of musculoskeletal toxicity of lovastatin,[2],did not decrease
same,severity of musculoskeletal toxicity of lovastatin,[2],significantly decreased
O=C1O[C@H]([C@@H](O)CO)C(O)=C1O [ascorbic acid],growth of implanted melanomas,implanted 216 melanomas,suppressed
"Cc1c(C)c2c(c(C)c1O)CCC(C)(CCCC(C)CCCC(C)CCCC(C)C)O2 (stereo not drawn) [d1-α-Tocopherol, 2,5,7,8-tetramethyl-2-(4,8,12-trimethyltridecyl)-chroman-6-ol]",body weight at the time of tumor implant,"B16(F10) melanoma; mouse, in vivo",significantly lower
same,IC50,[1]; [7],> 1600 µM
same,impact on cell number (FIG. 1),[1]; viable cells at 48 hours after addition,no impact on cell number
"CC(C)=CCCC(C)=CCCC(C)=CCCC1CCc2cc(O)ccc2O1 (stereo not drawn) [d-2-desmethyl Tocotrienol, 2-(4,8,12-trimethyltrideca-3,7,11-trienyl)-chroman-6-ol]",IC50,[1]; [8],0.9 µM
"C=C(C)[C@H]1CC=C(C)CC1 [d-Limonene, [R]4-isopropenyl-1-methyl-1-cyclohexene]",IC50,[1]; [8],450 µM
"CC(C)=CCCC(C)=CCCC(C)=CCCC1(C)CCc2c(C)c(O)c(C)c(C)c2O1 (stereo not drawn) [d-α-Tocotrienol, 2,5,7,8-tetramethyl-2-(4,8,12-trimethyltrideca-3,7,11-trienyl)-chroman-6-ol]",IC50,[1]; [8],110 µM
"CC(C)=CCCC(C)=CCCC(C)=CCCC1(C)CCc2cc(O)c(C)c(C)c2O1 (stereo not drawn) [d-γ-Tocotrienol, 2,7,8-trimethyl-2-(4,8,12-trimethyltrideca-3,7,11-trienyl)-chroman-6-ol]",retardation in tumor growth,"B16(F10) melanoma; 116 μmol/kg diet, isomolar substitution for dl-α-tocopherol in AIN-76A diet",36%
same,retardation in tumor growth,"B16(F10) melanoma; 928 μmol/kg diet, Vitamin E-equivalent substitution for dl-α-tocopherol in AIN-76A diet",50%
same,days post-implant to tumor detection,"B16(F10) melanoma; 928 μmol/kg diet, least mean squares analysis",differed significantly from the effects of the other treatments
same,"28 day tumor weight, least mean squares analyses",B16(F10) melanoma; 116 and 928 μmol/kg diet,tumor growth-suppressive action
same,growth of the B16 melanoma implanted in the flank of host mice,B16(F10) melanoma; diet providing an intake of 0.4 μmol/d (diet-relevant intake),suppressed
same,suppression of tumor growth,B16(F10) melanoma; diet providing only the d-α-tocopherol-equivalent of the AIN-76A diet,highly significant suppression
same,Growth,[3]; 5 μmol/L,90 % of Control
same,Growth,[3]; 7.5 μmol/L,81 % of Control
same,Growth,[3]; 10 μmol/L,85 % of Control and 72 % of Control
same,Growth,[3]; 15 μmol/L,66 % of Control and 77 % of Control
same,Growth,[3]; 20 μmol/L,65 % of Control
same,IC50,[4],20 µM
same,IC50,[1]; [7],20 µM
same,growth of implanted murine melanoma B16F10 tumors,[5]; 116-2000 μmol/kg diet,suppressed
same,further change in duration of survival on doubling the intake,"[6]; 14 μmol/d versus 7 μmol/d, P=0.95",-0.21 days
same,"Days survival, Mean",[6]; 2 mmol/kg diet,18.67^a Days
same,"Days survival, Median",[6]; 2 mmol/kg diet,20.0 days
same,"Days survival, Mean",[6]; 4 mmol/kg diet,18.46^a Days
same,"Days survival, Median",[6]; 4 mmol/kg diet,22.0 days
same,growth of established B16 melanomas,[6],suppressed
same,increase in duration of survival,[6]; diet providing an intake of 7 μmol/d,35%
same,duration of host survival,[6],significantly increased
same,reduction of 48 hour cell count,B16 melanoma cells; 7.5 μmol/L,19%
same,reduction of 48 hour cell count,B16 melanoma cells; 15 μmol/L,34%
"CC(C)=CCCC(C)=CCCC(C)=CCCC1(C)CCc2cc(O)cc(C)c2O1 (stereo not drawn) [d-δ-Tocotrienol, 2,8-dimethyl-2-(4,8,12-trimethyltrideca-3,7,11-trienyl)-chroman-6-ol]",IC50,[1]; [8],10 µM
CC(=O)C=CC1=C(C)CCCC1(C)C [β-Ionone],Growth,[3]; 50 μmol/L,90 % of Control
same,Growth,[3]; 100 μmol/L,84 % of Control
same,decrease in cell growth,[3]; 150 μM,32%
same,Growth,[3]; 150 μmol/L,68 % of Control
same,IC50,[4],140 µM
same,IC50,[1]; [8],140 ± 23 µM
same,growth of implanted murine melanoma B16F10 tumors,[5]; 2 mmol/kg diet,suppressed
same,"Days survival, Mean",[6]; 2 mmol/kg diet,18.27^a Days
same,"Days survival, Median",[6]; 2 mmol/kg diet,23.0 days
same,growth of established B16 melanomas,[6],suppressed
same,duration of host survival,[6],significantly increased
same,reduction of 48 hour cell count,B16 melanoma cells; 50 μmol/L,10%
same,reduction of 48 hour cell count,B16 melanoma cells; 75 μmol/L,31%
same,reduction of 48 hour cell count,B16 melanoma cells; 100 μmol/L,16%
same,reduction of 48 hour cell count,B16 melanoma cells; 150 μmol/L,65%
